Assay results reported in PMC8708751, “Hit Identification of a Novel Quinazoline Sulfonamide as a Promising EphB3 Inhibitor: Design, Virtual Combinatorial Library, Synthesis, Biological Evaluation, and Docking Simulation Studies” (Pharmaceuticals, 2021).
Like-named read-outs stand apart in the source and are kept apart here.

Assays:
[1] = biological target: T1, ERBB2/HER2 (Homo sapiens, UniProt P04626); assay: Kinase panel assay, ERBB2/HER2; type: biochemical; conditions: ERBB2/HER2, 10 µM; read-out: Average % Enzyme Inhibition (Relative to DMSO Controls) at 10 µM
T1 construct: purchased Reaction Biology Co. (Kinase HotSpot service)
T1 sequence (P04626 23-1255): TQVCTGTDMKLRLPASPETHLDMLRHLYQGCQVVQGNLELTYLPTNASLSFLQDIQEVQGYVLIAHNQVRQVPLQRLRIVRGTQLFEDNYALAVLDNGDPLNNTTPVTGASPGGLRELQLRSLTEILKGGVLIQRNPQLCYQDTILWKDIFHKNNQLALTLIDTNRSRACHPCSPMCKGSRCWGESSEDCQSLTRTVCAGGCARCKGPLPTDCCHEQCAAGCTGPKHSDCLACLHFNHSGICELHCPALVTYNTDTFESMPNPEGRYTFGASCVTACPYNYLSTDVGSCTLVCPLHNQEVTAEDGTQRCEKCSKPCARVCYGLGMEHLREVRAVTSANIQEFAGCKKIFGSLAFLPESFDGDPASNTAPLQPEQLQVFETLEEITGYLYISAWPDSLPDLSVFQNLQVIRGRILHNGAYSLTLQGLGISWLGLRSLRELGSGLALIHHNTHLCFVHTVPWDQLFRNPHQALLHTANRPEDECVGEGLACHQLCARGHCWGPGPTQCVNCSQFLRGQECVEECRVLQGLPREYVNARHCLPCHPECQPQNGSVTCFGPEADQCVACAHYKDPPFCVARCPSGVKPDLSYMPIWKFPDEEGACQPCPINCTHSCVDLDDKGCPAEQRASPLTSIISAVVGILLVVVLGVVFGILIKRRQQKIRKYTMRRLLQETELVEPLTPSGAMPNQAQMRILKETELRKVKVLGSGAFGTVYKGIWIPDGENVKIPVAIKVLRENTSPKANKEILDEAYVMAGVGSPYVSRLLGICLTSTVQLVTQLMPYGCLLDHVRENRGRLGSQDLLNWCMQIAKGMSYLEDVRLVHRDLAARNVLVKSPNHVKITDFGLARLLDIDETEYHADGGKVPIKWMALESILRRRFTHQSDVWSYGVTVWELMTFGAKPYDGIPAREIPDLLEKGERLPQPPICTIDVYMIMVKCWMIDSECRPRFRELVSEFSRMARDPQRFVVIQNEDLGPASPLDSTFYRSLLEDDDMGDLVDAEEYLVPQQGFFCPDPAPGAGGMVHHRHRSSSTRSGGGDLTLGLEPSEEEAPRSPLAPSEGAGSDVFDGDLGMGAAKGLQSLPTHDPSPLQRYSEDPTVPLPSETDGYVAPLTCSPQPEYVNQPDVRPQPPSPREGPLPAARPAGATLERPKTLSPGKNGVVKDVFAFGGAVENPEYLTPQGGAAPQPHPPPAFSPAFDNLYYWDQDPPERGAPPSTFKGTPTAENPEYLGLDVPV
Procedure: (§1) The screening of the tested compounds was performed using the Kinase HotSpot^SM service from Reaction Biology Co. (http://www.reactionbiology.com, accessed on 25 September 2021). The HotSpot assay platform contains specific kinase/substrate pairs along with required cofactors. Base reaction buffer: 20 mM Hepes (pH 7.5), 10 mM MgCl2, 1 mM EGTA, 0.02% Brij35, 0.02 mg/mL BSA, 0.1 mM Na3VO4, 2 mM DTT, 1% DMSO. The tested compounds were dissolved in 100% DMSO to specific concentration. The serial dilution was conducted by Integra Viaflo Assist in DMSO (Sigma-Aldrich, Burlington, MA, USA). The reaction mixture containing the examined compound and 33P-ATP was incubated at room temperature for 2 h, and radioactivity was detected by filter-binding method. Kinase activity data were expressed as the percent remaining kinase activity in test samples compared to vehicle (dimethyl sulfoxide) reactions. IC50 values and curve fits were obtained using Prism (GraphPad Software, San Diego, CA, USA).

[2] = biological target: T2, CDK2/cyclin A (Homo sapiens, UniProt P24941); assay: Kinase panel assay, CDK2/cyclin A; type: biochemical; conditions: read-out: Average % Enzyme Inhibition (Relative to DMSO Controls) at 10 µM
T2 construct: purchased Reaction Biology Co. (Kinase HotSpot service)
Procedure: as §1

[3] = biological target: T3, EphB3 kinase (Homo sapiens, UniProt P54753); assay: EphB3 kinase inhibition assay (HotSpot); type: biochemical
T3 construct: purchased Reaction Biology Co. (Kinase HotSpot service)
T3 sequence (P54753 34-998): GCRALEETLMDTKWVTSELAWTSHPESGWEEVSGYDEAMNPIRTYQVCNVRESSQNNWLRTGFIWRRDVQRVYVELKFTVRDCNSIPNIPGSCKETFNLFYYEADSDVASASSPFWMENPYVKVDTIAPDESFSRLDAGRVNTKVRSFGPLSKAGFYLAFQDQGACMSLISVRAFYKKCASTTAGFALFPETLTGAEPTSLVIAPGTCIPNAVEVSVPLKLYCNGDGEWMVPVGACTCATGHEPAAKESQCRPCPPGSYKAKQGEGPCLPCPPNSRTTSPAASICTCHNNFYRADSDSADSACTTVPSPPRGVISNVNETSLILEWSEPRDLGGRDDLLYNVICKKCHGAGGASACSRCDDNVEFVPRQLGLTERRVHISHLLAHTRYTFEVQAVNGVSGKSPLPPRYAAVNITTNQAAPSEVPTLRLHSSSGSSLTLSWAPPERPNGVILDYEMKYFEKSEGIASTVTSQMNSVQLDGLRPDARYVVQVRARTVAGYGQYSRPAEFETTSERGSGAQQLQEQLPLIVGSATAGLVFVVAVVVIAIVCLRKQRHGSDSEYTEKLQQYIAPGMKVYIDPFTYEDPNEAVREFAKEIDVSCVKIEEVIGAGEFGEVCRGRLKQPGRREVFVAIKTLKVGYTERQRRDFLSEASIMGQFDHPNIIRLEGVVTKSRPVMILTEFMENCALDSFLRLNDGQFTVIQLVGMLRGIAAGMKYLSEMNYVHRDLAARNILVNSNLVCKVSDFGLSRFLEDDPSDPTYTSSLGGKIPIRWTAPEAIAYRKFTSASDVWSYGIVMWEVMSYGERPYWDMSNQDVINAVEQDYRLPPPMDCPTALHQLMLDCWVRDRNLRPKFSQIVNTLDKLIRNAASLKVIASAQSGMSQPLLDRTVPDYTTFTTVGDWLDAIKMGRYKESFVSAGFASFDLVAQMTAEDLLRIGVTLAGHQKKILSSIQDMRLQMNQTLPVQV
Procedure: The synthesized compounds were subjected to in vitro screening over EphB3 kinase. A single dose of 10 µM concentration of each target compound was used in EphB3 kinase inhibition assay, at 10 µM ATP, applying HotSpot^SM technology.
as §1, with “The” for “The screening of the tested compounds was performed using the Kinase HotSpot^SM service from Reaction Biology Co. (http://www.reactionbiology.com, accessed on 25 September 2021). The”

[4] = biological target: T4, Aurora A (Homo sapiens, UniProt O14965); assay: Kinase panel assay, Aurora A; type: biochemical; conditions: read-out: Average % Enzyme Inhibition (Relative to DMSO Controls) at 10 µM
T4 construct: purchased Reaction Biology Co. (Kinase HotSpot service)
T4 sequence (O14965 1-403): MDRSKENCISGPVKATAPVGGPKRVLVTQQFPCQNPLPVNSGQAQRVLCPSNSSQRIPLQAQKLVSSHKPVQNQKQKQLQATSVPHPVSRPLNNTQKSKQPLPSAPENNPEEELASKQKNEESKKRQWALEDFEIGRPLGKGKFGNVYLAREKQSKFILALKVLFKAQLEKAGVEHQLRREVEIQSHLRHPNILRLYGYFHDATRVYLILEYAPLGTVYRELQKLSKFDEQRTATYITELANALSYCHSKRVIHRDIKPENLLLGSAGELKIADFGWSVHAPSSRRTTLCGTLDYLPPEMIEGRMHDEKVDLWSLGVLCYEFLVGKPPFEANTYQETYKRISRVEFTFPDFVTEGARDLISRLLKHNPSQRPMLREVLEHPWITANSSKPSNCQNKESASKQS
Procedure: as §1

**Q.** With NS(=O)(=O)c1ccc(Nc2ncnc3ccc(-c4cccc(O)c4)cc23)cc1 [Compound 4c, 4-((6-(3-Hydroxyphenyl)quinazolin-4-yl)amino)benzenesulfonamide] as the compound, how does the inhibition at 10 µM [1] read?
**A.** 67.8 ± 0.99%

**Q.** And the inhibition at 10 µM [2]?
**A.** 75 ± 2.07%

**Q.** And the melting point?
**A.** 313.2 to 315.1 °C

**Q.** What about the inhibition at 10 µM ([3]; EphB3 kinase, 10 µM compound, 10 µM ATP, read-out: Average % Enzyme Inhibition at 10 µM (Relative to DMSO Control)) of the same compound?
**A.** > 93%

**Q.** And the IC50 ([3]; EphB3 kinase, dose dependent assay, read-out: IC50)?
**A.** 1.04 µM

**Q.** What about the IC50 ([3]; EphB3 kinase, read-out: EC50 of the curve fit printed in Figure 5 (IC50 per legend)) of the same compound?
**A.** 1.04 µM

**Q.** And the “selectivity for EphB3 over EphB1 isoform” value ([3]; from IC50 values, EphB3 over EphB1)?
**A.** six

**Q.** What about the inhibition at 10 µM [4] of the same compound?
**A.** 67.9 ± 4.93%
